From PubChem BioAssay (NCI)
“And” between values parts separate entries of the source, which are not always exact repeats. Identical values can stand only once.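 Grown in 96-well plates, cells were treated for 48 hours with each compound at five concentrations. Insufficient inhibition: endpoint recorded as highest concentration tested. Here, GI50 denotes the concentration required for 50% inhibition of growth. TGI marks complete inhibition of growth.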

Experiments:
Assay in all cases: DTP human tumour cell line panel, 48 h
[1] = system: ACHN renal
[2] = system: SNB-75 CNS
[3] = system: RPMI-8226 leukemia
[4] = system: IGROV1 ovarian
[5] = system: HL-60(TB) leukemia
[6] = system: U251 CNS
[7] = system: SF-295 CNS
[8] = system: OVCAR-3 ovarian
[9] = system: SNB-78 CNS
[10] = system: HOP-92 NSCLC
[11] = system: OVCAR-8 ovarian
[12] = system: HT29 colon
[13] = system: HCC-2998 colon
[14] = system: A549 NSCLC
[15] = system: LOX IMVI melanoma
[16] = system: DMS 114 small cell lung
[17] = system: RXF 393 renal
[18] = system: EKVX NSCLC
[19] = system: UACC-257 melanoma
[20] = system: SNB-19 CNS
[21] = system: M19-MEL melanoma
[22] = system: SW-620 colon
[23] = system: NCI-H23 lung
[24] = system: COLO 205 colon
[25] = system: MOLT-4 leukemia
[26] = system: CCRF-CEM leukemia
[27] = system: KM20L2 colon
[28] = system: LXFL 529 NSCLC
[29] = system: HCT-15 colon
[30] = system: HOP-18 NSCLC
[31] = system: HCT-116 colon
[32] = system: OVCAR-4 ovarian
[33] = system: K-562 leukemia
[34] = system: NCI-H522 lung
[35] = system: NCI-H460 lung
[36] = system: HOP-62 NSCLC
[37] = system: SK-MEL-2 melanoma
[38] = system: M14 melanoma
[39] = system: KM12 colon
[40] = system: UACC-62 melanoma
[41] = system: DMS 273 small cell lung
[42] = system: SF-268 CNS
[43] = system: TK-10 renal
[44] = system: SK-OV-3 ovarian
[45] = system: SK-MEL-28 melanoma
[46] = system: SF-539 CNS
[47] = system: UO-31 renal
[48] = system: OVCAR-5 ovarian
[49] = system: 786-0 renal
[50] = system: DLD-1 colon
[51] = system: A498 renal
[52] = system: MALME-3M melanoma
[53] = system: SN12C renal
[54] = system: MDA-N
[55] = system: DU-145 prostate
[56] = system: SR leukemia
[57] = system: T-47D breast
[58] = system: PC-3 prostate
[59] = system: NCI/ADR-RES ovarian
[60] = system: MCF7 breast
[61] = system: CAKI-1 renal
[62] = system: NCI-H226 lung
[63] = system: SK-MEL-5 melanoma
[64] = system: BT-549 breast
[65] = system: HS 578T breast
[66] = system: MDA-MB-231 breast

COc1cc(C(=O)NO)ccc1O
TGI [1]: > 100 µM | TGI [2]: > 100 µM | TGI [3]: > 100 µM | TGI [4]: > 100 µM | TGI [5]: > 100 µM | TGI [6]: > 100 µM | TGI [7]: > 100 µM | TGI [8]: > 100000 nM | TGI [9]: > 100 µM | TGI [10]: > 100 µM | TGI [11]: > 100 µM | TGI [12]: > 100 µM | TGI [13]: > 100 µM | TGI [14]: > 100 µM | TGI [15]: > 100 µM | TGI [16]: > 100000 nM | TGI [17]: > 100 µM | TGI [18]: > 100 µM | TGI [19]: > 100 µM | TGI [20]: > 100 µM | TGI [21]: > 100 µM | TGI [22]: > 100 µM | TGI [23]: > 100 µM | TGI [24]: > 100000 nM | TGI [25]: > 100 µM | TGI [26]: > 100 µM | TGI [27]: > 100 µM | TGI [28]: > 100 µM | TGI [29]: > 100 µM | TGI [30]: > 100 µM | TGI [31]: > 100 µM | TGI [32]: > 100 µM | TGI [33]: > 100 µM | TGI [34]: > 100 µM | TGI [35]: > 100 µM | TGI [36]: > 100 µM | TGI [37]: > 100 µM | TGI [38]: > 100 µM | TGI [39]: > 100 µM | TGI [40]: > 100 µM | TGI [41]: > 100 µM | TGI [42]: > 100 µM | TGI [43]: > 100 µM | TGI [44]: > 100 µM | TGI [45]: > 100 µM | TGI [46]: > 100000 nM | TGI [47]: > 100 µM | TGI [48]: > 100 µM | TGI [49]: > 100 µM | TGI [50]: > 100 µM | TGI [51]: > 100 µM | TGI [52]: > 100 µM | TGI [53]: > 100 µM

COc1ccc(NCc2cc(OC)c(OC)c(OC)c2)cc1
TGI [54]: 2550 nM | GI50 [1]: 713 nM and 1840 nM | TGI [1]: > 100 µM | TGI [55]: > 47.8 µM | GI50 [2]: 513 nM and 262 nM | TGI [2]: > 100 µM | TGI [56]: > 29 µM | TGI [3]: > 100 µM | TGI [4]: > 100 µM | TGI [6]: > 58.9 µM and 15.1 µM | TGI [57]: > 100 µM | TGI [8]: 1170 nM and 2890 nM | TGI [9]: > 100 µM | TGI [10]: > 100 µM and 19.4 µM | TGI [11]: > 100 µM | TGI [12]: > 100 µM and 12.9 µM | TGI [13]: 2.73 µM and 3.31 µM | TGI [14]: > 100 µM | TGI [15]: > 100 µM | TGI [16]: 833 nM and 654 nM | TGI [58]: > 100 µM | TGI [17]: 7.62 µM | TGI [18]: > 100 µM | GI50 [19]: 338 nM and 1160 nM | TGI [19]: > 100 µM | TGI [59]: > 17.1 µM | TGI [20]: > 100 µM | TGI [60]: > 100 µM | TGI [22]: > 100 µM | TGI [23]: 31.4 µM | TGI [24]: 784 nM and 2830 nM | TGI [25]: > 100 µM | GI50 [26]: 281 nM and 855 nM | TGI [26]: > 100 µM | GI50 [27]: 198 nM | GI50 [61]: 404 nM and 1040 nM | TGI [61]: > 100 µM | TGI [28]: > 100 µM | TGI [29]: > 39.7 µM and 36.5 µM | GI50 [30]: > 43.3 µM | TGI [30]: > 100 µM | TGI [31]: > 72 µM and 34.1 µM | TGI [32]: > 100 µM | GI50 [62]: 414 nM and 4040 nM | TGI [62]: 6.38 µM and 29.1 µM | GI50 [33]: 44.4 nM and 114 nM | TGI [33]: > 100 µM | GI50 [63]: 252 nM | TGI [63]: 32.7 µM and > 74.5 µM | TGI [64]: > 100 µM | TGI [35]: > 32.7 µM and 37.1 µM | TGI [36]: > 74.1 µM | GI50 [37]: 328 nM | TGI [37]: > 100 µM | TGI [38]: > 100 µM and 15.4 µM | TGI [65]: > 100 µM | TGI [39]: > 32.7 µM and 31.3 µM | GI50 [40]: 308 nM | TGI [40]: > 100 µM | TGI [41]: > 100 µM | TGI [42]: > 100 µM | TGI [43]: > 100 µM | TGI [44]: > 100 µM and 22.5 µM | TGI [45]: > 100 µM | TGI [46]: 2220 nM and 929 nM | GI50 [47]: 2790 nM | TGI [47]: > 100 µM | GI50 [48]: > 91.7 µM and 20.2 µM | TGI [48]: > 100 µM | TGI [49]: > 100 µM | TGI [66]: > 100 µM | TGI [50]: > 100 µM | TGI [51]: > 70.6 µM and 17.3 µM | TGI [52]: > 100 µM | TGI [53]: > 100 µM

COc1cc2cccc(N=Cc3ccccc3Cl)c2cc1OC
TGI [1]: > 100 µM | TGI [2]: > 100 µM | TGI [56]: > 100 µM | TGI [3]: > 100 µM | TGI [4]: > 100 µM | TGI [5]: > 100 µM | TGI [6]: > 100 µM | TGI [7]: > 100 µM | TGI [8]: > 100000 nM | TGI [9]: > 100 µM | TGI [10]: > 100 µM | TGI [11]: > 100 µM | TGI [12]: > 100 µM | TGI [13]: > 100 µM | TGI [14]: > 100 µM | TGI [15]: > 100 µM | TGI [16]: > 100000 nM | TGI [17]: > 100 µM | TGI [18]: > 100 µM | TGI [19]: > 100 µM | TGI [20]: > 100 µM | TGI [21]: > 100 µM | TGI [22]: > 100 µM | TGI [23]: > 100 µM | TGI [24]: > 100000 nM | TGI [25]: > 100 µM | TGI [26]: > 100 µM | TGI [27]: > 100 µM | TGI [61]: > 100 µM | TGI [28]: > 100 µM | TGI [29]: > 100 µM | TGI [30]: > 100 µM | TGI [31]: > 100 µM | TGI [32]: > 100 µM | TGI [62]: > 100 µM | TGI [33]: > 100 µM | TGI [63]: > 100 µM | TGI [34]: > 100 µM | TGI [35]: > 100 µM | TGI [36]: > 100 µM | TGI [37]: > 100 µM | TGI [38]: > 100 µM | TGI [39]: > 100 µM | TGI [40]: > 100 µM | TGI [42]: > 100 µM | TGI [43]: > 100 µM | TGI [44]: > 100 µM | TGI [45]: > 100 µM | TGI [46]: > 100000 nM | TGI [47]: > 100 µM | TGI [48]: > 100 µM | TGI [49]: > 100 µM | TGI [50]: > 100 µM | TGI [52]: > 100 µM | TGI [53]: > 100 µM
